In patent US11299478B2, “2-cyanopyrimidin-4-yl carbamate or urea derivative or salt thereof, and pharmaceutical composition including same” (HANLIM PHARMACEUTICAL CO., LTD., priority 2018, dated 2022):

Experiments:
Assay type in all cases: biochemical
[1] = target: T1, cathepsin K (Homo sapiens, UniProt P43235); assay: Inhibitory activity assay against cathepsin K (enzyme assay); conditions: Z-Phe-Arg-AMC 10 μM, enzyme 1 nM, pH 5.5, 30 minutes
T1 sequence (P43235 115-329): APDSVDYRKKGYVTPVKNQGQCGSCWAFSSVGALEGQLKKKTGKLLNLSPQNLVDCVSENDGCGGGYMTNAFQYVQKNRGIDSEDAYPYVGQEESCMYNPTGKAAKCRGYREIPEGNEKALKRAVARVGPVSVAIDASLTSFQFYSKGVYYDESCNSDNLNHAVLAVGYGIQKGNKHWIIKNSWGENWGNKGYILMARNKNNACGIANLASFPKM
Outline: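 Fluorogenic assay with 1 nM cathepsin K and 10 μM Z-Phe-Arg-AMC in pH 5.5 buffer (50 mM MES, 2 mM DTT, 2.5 mM EDTA, 0.01% Triton X-100, 10% DMSO). Ten compound concentrations, 10.0 to 0.000508 μM; 30 min reaction, ex 355/em 460 nm; IC50 by 4-parameter logistic fit.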

[2] = target: cathepsin B (Homo sapiens, UniProt P07858); assay: Inhibitory activity assay against cathepsin B (enzyme assay); conditions: Z-Arg-Arg-AMC 40 μM, enzyme 1 nM, pH 6.0, 90 minutes
Outline: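 1 nM enzyme with 40 μM Z-Arg-Arg-AMC and compound (10.0 μM down to 0.000508 μM, 10 points) in pH 6.0 buffer of 50 mM MES, 5 mM DTT, 2.5 mM EDTA, 0.005% Polysorbate 20, 10% DMSO. Fluorescence (340/460 nm) read after 90 min; IC50 by 4-parameter logistic fit.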

[3] = target: cathepsin L (Homo sapiens, UniProt P07711); assay: Inhibitory activity assay against cathepsin L (enzyme assay); conditions: Z-Phe-Arg-AMC 2 μM, enzyme 3 nM, pH 5.5, 30 minutes
cathepsin L, sequence (P07711 114-333, species assumed): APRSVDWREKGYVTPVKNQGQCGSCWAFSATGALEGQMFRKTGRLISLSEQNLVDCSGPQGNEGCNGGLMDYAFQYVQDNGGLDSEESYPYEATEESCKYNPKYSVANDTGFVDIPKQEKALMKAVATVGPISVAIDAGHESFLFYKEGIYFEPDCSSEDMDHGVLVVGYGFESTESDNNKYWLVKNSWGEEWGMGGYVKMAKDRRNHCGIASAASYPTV
Outline: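 Enzyme at 3 nM with 2 μM Z-Phe-Arg-AMC in 50 mM MES pH 5.5, 2.5 mM DTT, 2.5 mM EDTA, 0.005% Polysorbate 20, 10% DMSO; 30 min reaction, AMC fluorescence 340/460 nm. Ten-point series 10.0 μM to 0.000508 μM; IC50 by 4-parameter logistic fit.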

[4] = target: cathepsin S (Homo sapiens, UniProt P25774); assay: Inhibitory activity assay against cathepsin S (enzyme assay); conditions: Z-Phe-Arg-AMC 70 μM, enzyme 3 nM, pH 6.5, 45 minutes
cathepsin S, sequence (P25774 115-331, species assumed): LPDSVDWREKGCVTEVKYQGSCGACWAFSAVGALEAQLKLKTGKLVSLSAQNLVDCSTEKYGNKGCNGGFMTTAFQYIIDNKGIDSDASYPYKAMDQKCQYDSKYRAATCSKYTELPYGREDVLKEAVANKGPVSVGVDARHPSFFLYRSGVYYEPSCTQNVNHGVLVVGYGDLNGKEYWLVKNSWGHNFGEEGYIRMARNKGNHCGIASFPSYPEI
Outline: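 Cathepsin S (3 nM final) with Z-Phe-Arg-AMC substrate (70 μM final) in pH 6.5 buffer of 50 mM MES, 2.5 mM DTT, 1.0 mM EDTA, 0.001% BSA, 10% DMSO; compound 10.0 μM down to 0.000508 μM, 10 points. Fluorescence (ex 340/em 460 nm) after 45 min; IC50 by 4-parameter logistic fit.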

IC50 [1] [nM] | IC50 [2] [nM] | IC50 [3] [nM] | IC50 [4] [nM] | Structure (SMILES)
3.8 | > 10000 | 6890 | > 10000 | N#Cc1nccc(C2(NC(=O)Nc3cccc(C(F)(F)F)c3)CCCCC2)n1 [Example 89, 1-(1-(2-cyanopyrimidin-4-yl)cyclohexyl)-3-(3-(trifluoromethyl)phenyl)urea]
31.9 | > 10000 | > 10000 | 7350 | Cn1ncc2ccc(-c3cccc(COC(=O)NC4(c5ccnc(C#N)n5)CCCC4)c3)cc21 [Example 36, 3-(1-methyl-1H-indazol-6-yl)benzyl (1-(2-cyanopyrimidin-4-yl)cyclopentyl)carbamate]
4.3 | > 10000 | > 10000 | > 10000 | COC(=O)Cc1ccc(-c2ccc(NC(=O)NC3(c4ccnc(C#N)n4)CCCCC3)cc2)cc1 [Example 156, methyl 2-(4′-(3-(1-(2-cyanopyrimidin-4-yl)cyclohexyl)ureido)-[1,1′-biphenyl]-4-yl)acetate]
63.2 | > 10000 | 3440 | 6240 | N#Cc1nccc(C2(NC(=O)Nc3ccccc3O)CCCCC2)n1 [Example 102, 1-(1-(2-cyanopyrimidin-4-yl)cyclohexyl)-3-(2-hydroxyphenyl)urea]
68.2 | > 10000 | > 10000 | > 10000 | N#Cc1nccc(C2(NC(=O)Nc3ccc(C(F)(F)F)cc3)CCCCC2)n1 [Example 90, 1-(1-(2-cyanopyrimidin-4-yl)cyclohexyl)-3-(4-(trifluoromethyl)phenyl)urea]
15.4 | > 10000 | > 10000 | > 10000 | N#Cc1nccc(C2(NC(=O)Nc3ccc(Cc4ccccc4)cc3)CCCCC2)n1 [Example 100, 1-(4-benzylphenyl)-3-(1-(2-cyanopyrimidin-4-yl)cyclohexyl)urea]
4.6 | > 10000 | > 10000 | > 10000 | N#Cc1nccc(C2(NC(=O)Nc3cc(C(F)(F)F)ccc3C(F)(F)F)CCCCC2)n1 [Example 103, 1-(2,5-bis(trifluoromethyl)phenyl)-3-(1-(2-cyanopyrimidin-4-yl)cyclohexyl)urea]
8.3 | > 10000 | 6520 | 3950 | CS(=O)(=O)c1ccc(-c2ccc(NC(=O)NC3(c4ccnc(C#N)n4)CCCCC3)cc2C(F)(F)F)cc1 [Example 162, 1-(1-(2-cyanopyrimidin-4-yl)cyclohexyl)-3-(4′-(methylsulfonyl)-2-(trifluoromethyl)-[1,1′-biphenyl]-4-yl)urea]
18.3 | > 10000 | > 10000 | > 10000 | N#Cc1nccc(C2(NC(=O)Nc3cc(C(F)(F)F)cc(C(F)(F)F)c3)CCCCC2)n1 [Example 95, 1-(3,5-bis(trifluoromethyl)phenyl)-3-(1-(2-cyanopyrimidin-4-yl)cyclohexyl)urea]
38.9 | > 10000 | 2460 | 7110 | N#Cc1nccc(C2(NC(=O)Nc3ccccc3)CCCCC2)n1 [Example 86, 1-(1-(2-cyanopyrimidin-4-yl)cyclohexyl)-3-phenylurea]
0.3 | 3210 | 4280 | > 10000 | CC(C)N1CCN(c2ccc(-c3ccc(NC(=O)NC4(c5ccnc(C#N)n5)CCCCC4)cc3)cc2)CC1 [Example 154, 1-(1-(2-cyanopyrimidin-4-yl)cyclohexyl)-3-(4′-(4-isopropylpiperazin-1-yl)-[1,1′-biphenyl]-4-yl)urea]
1620 | > 10000 | > 10000 | > 10000 | N#Cc1nccc(C2(NC(=O)OCc3ccc(-c4ccc(F)nc4)cc3)CCCC2)n1 [Example 33, 4-(6-fluoropyridin-3-yl)benzyl (1-(2-cyanopyrimidin-4-yl)cyclopentyl)carbamate]
46.6 | > 10000 | > 10000 | > 10000 | N#Cc1nccc(C2(NC(=O)Nc3cc(F)ccc3F)CCCC2)n1 [Example 65, 1-(1-(2-cyanopyrimidin-4-yl)cyclopentyl)-3-(2,5-difluorophenyl)urea]
12.4 | > 10000 | 5590 | 3540 | CN(C(=O)NC1(c2ccnc(C#N)n2)CCCCC1)c1ccccc1 [Example 104, 3-(1-(2-cyanopyrimidin-4-yl)cyclohexyl)-1-methyl-1-phenylurea]
12.2 | > 10000 | > 10000 | > 10000 | N#Cc1nccc(C2(NC(=O)Nc3ccc(-c4ccccc4)cc3)CCCCC2)n1 [Example 113, 1-([1,1′-biphenyl]-4-yl)-3-(1-(2-cyanopyrimidin-4-yl)cyclohexyl)urea]
5.3 | > 10000 | > 10000 | > 10000 | N#Cc1nccc(C2(NC(=O)Nc3ccc(Br)cc3F)CCCCC2)n1 [Example 134, 1-(4-bromo-2-fluorophenyl)-3-(1-(2-cyanopyrimidin-4-yl)cyclohexyl)urea]
93.3 | > 10000 | 9230 | > 10000 | N#Cc1nccc(C2(NC(=O)NCc3ccccc3F)CCCC2)n1 [Example 40, 1-(1-(2-cyanopyrimidin-4-yl)cyclopentyl)-3-(2-fluorobenzyl)urea]
38.2 | > 10000 | > 10000 | 6220 | N#Cc1nccc(C2(NC(=O)Nc3ccc(I)c(F)c3)CCCCC2)n1 [Example 137, 1-(1-(2-cyanopyrimidin-4-yl)cyclohexyl)-3-(3-fluoro-4-iodophenyl)urea]
122 | > 10000 | > 10000 | 5840 | N#Cc1nccc(C2(NC(=O)Nc3ccc(-c4ccccc4C(F)(F)F)c(C(F)(F)F)c3)CCCCC2)n1 [Example 176, 1-(2,2′-bis(trifluoromethyl)-[1,1′-biphenyl]-4-yl)-3-(1-(2-cyanopyrimidin-4-yl)cyclohexyl)urea]
7.8 | > 10000 | > 10000 | 9070 | CN(C)C(=O)c1ccc(-c2ccc(NC(=O)NC3(c4ccnc(C#N)n4)CCCCC3)cc2)cc1 [Example 130, 4′-(3-(1-(2-cyanopyrimidin-4-yl)cyclohexyl)ureido)-N,N-dimethyl-[1,1′-biphenyl]-4-carboxamide]
41 | > 10000 | > 10000 | > 10000 | COc1ccc(COC(=O)NC2(c3ccnc(C#N)n3)CCCCC2)cc1 [Example 25, 4-methoxybenzyl (1-(2-cyanopyrimidin-4-yl)cyclohexyl)carbamate]
3700 | > 10000 | 9230 | > 10000 | N#Cc1nccc(C2(NC(=O)OCc3cccc(C(F)(F)F)c3)CCCCC2)n1 [Example 14, 3-(trifluoromethyl)benzyl (1-(2-cyanopyrimidin-4-yl)cyclohexyl)carbamate]
